Experimental data reported in patent publication US20080108642A1 (Tsinghua University, priority 2006, published 2008).
“Also recorded” adds a separate entry of the source. Counter-ions that a name gives are not always drawn.

What was measured:
[1] = LC-DAD-MS analysis of ingredients in rat plasma after oral administration of QLY decoction; conditions: 20 minutes after oral administration of QLY decoction
Description: Liquid chromatography simultaneously coupled with a diode array detector and a mass spectrometry detector (LC-DAD-MS) was used to analyze the pharmaceutical ingredients in rat plasma at different time points after oral administration of QLY decoction in order to determine the ingredients in QLY that could be absorbed into the body through metabolism. In this experiment, performed were comparison analyses of chromatogram and mass spectrum of QLY decoction and those of decoction of each of the constituent herbs of QLY, comparison analyses of chromatogram and mass spectrum of QLY decoction and those of QLY decoction plus blank plasma, comparison analyses of chromatogram and mass spectrum of blank plasma and those of post-administration plasma (blood sample taken at 20 min, 1 h, and 2 h respectively after oral administration of QLY decoction).

[2] = test system: Human Umbilical Vein Endothelial Cells (HUVEC); assay: Suppression of endothelial cell proliferation, separate and combined use (equivalent curve / response surface method); assay type: cell-based; conditions: separate use
Description: Human Umbilical Vein Endothelial Cells (HUVEC) were employed in the experiment and the suppression rate on endothelial cell proliferation were monitored. Classical methods including equivalent curve method and the response surface method were used and the amount-effect curves were plotted.

SMILES | detected in plasma of rats after oral administration of QLY [1] | effect on suppressing proliferation of endothelial cells (anti-angiogenesis activity) ([2]; hydrochloride) | effect on suppressing proliferation of endothelial cells (anti-angiogenesis activity) [2]
O=C1C=CC[C@@H]2[C@H]3CCCN4CCC[C@@H](CN12)[C@@H]34 [sophocarpine] | small amounts | – | –
COC1=CC2C3Cc4ccc(OC)c(O)c4[C@]2(CCN3C)CC1=O (stereo partly drawn) [sinomenine, Sinomenine] | detected | – | –
CN1C[C@@H]2C[C@H](C1)c1cccc(=O)n1C2 [N-methylcytisine] | small amounts | – | –
COC1=C[C@@H]2[C@@H]3Cc4ccc(OC)c(O)c4[C@]2(CCN3C)CC1=O [sinomenine hydrochloride] | – | relatively strong; also recorded: remarkable effect | –
O=C1CCCC2C3CCCN4CCCC(CN12)C34 (stereo not drawn) [matrine, Matrine] | detected | – | relatively strong; also recorded: remarkable effect
